Source: patent US11186610B2, “Crystal of glutathione trisulfide dihydrate and method for producing same” (KYOWA HAKKO BIO CO., LTD., priority 2016, dated 2021)

Experiment: Hygroscopicity / storage stability: weight change on storage at 40° C. and 75% relative humidity
Format: physicochemical
Details: for Weight change with the elapse of time (in words): storage 0-4 hours at 40° C.
Procedure: 1 g of the crystal of glutathione trisulfide dihydrate produced in Example 2 was dissolved in water, and the volume was made up to 100 mL. The aqueous solution was filtered with a 0.45 μm of filter and then lyophilized to obtain a whitish transparent powder.
Subsequently, hygroscopicity of the obtained non-crystalline amorphous form of glutathione trisulfide and the crystal of glutathione trisulfide dihydrate produced in Example 2 was compared.
About 100 mg of each sample was weighed with a precise balance and then filled in a glass container, and after storage in THE051A (manufactured by Advantec Toyo Kaisha, Ltd.) under conditions of 40° C. and 75% relative humidity, the sample was weighed again to calculate a weight change rate. The sample weight after each elapsed time was measured with respect to 100% weight at the start of test.

[1] = as compared with the non-crystalline amorphous form, 40° C.

Hygroscopicity (in words) [1]	Storage stability (in words) [1]	Sample weight with respect to 100% weight at the start of test (elapsed time 0 hour, 40° C.)	Sample weight with respect to 100% weight at the start of test (elapsed time 0.5 hour, 40° C.)	Sample weight with respect to 100% weight at the start of test (elapsed time 1 hour, 40° C.)	Sample weight with respect to 100% weight at the start of test (elapsed time 2 hours, 40° C.)	Sample weight with respect to 100% weight at the start of test (elapsed time 4 hours, 40° C.)	Weight change with the elapse of time (in words)	Compound
low hygroscopicity	excellent storage stability	100.0%	100.0%	100.0%	100.0%	100.0%	almost not changed	N[C@@H](CCC(=O)N[C@@H](CSSSC[C@H](NC(=O)CC[C@H](N)C(=O)O)C(=O)NCC(=O)O)C(=O)NCC(=O)O)C(=O)O.O.O [crystal of dehydrate, glutathione trisulfide dihydrate]
		100.0%	106.7%	107.7%	108.7%	108.7%	increases with the elapse of time	N[C@@H](CCC(=O)N[C@@H](CSSSC[C@H](NC(=O)CC[C@H](N)C(=O)O)C(=O)NCC(=O)O)C(=O)NCC(=O)O)C(=O)O [non-crystalline amorphous form, glutathione trisulfide]
